Assay results: patent US9539315B2, “Methods, agents and peptides for inhibiting matrix metalloproteinase-2 signaling” (New York University, priority 2011, dated 2017)
“Also recorded” adds a separate entry of the source.

How the values were obtained:
[1] = system: NF-κB pathway; assay: p50 nuclear translocation / NF-κB activation in DCs (ELISA of cytosolic and nuclear fractions); type: cell-based, human; settings: DCs exposed to MMP-2 (5 μm/ml) or zymosan (10 μm/ml); p50 by ELISA
Procedure: (§1) A) DCs were exposed to MMP-2 […] or zymosan […], a known activator of NF-κB that acts via TLR2, for the indicated time. Cytosolic and nuclear fractions were isolated and p50 contents were measured by ELISA. […] C) OX40L over-expression on DCs induced by MMP-2 is inhibited by an inhibitor of NEMO, the NEMO binding domain (NBD) peptide, but not by the corresponding negative control, a NBD mutant.
(§2) PBMCs were purified from healthy-(HD) or cord blood- (CB) donors and plated at 40×10^6 cells/10 mL/dish in complete IMDM with 5% PHS. Cells were allowed to adhere for 2 h at 37° C. Non-adherent cells were removed. The monocyte-enriched fraction was supplemented with 100 UI/mL rhGMCSF and 300 UI/mL rhIL-4 (R&D Systems) on days 0, 2 and 4. Immature DCs were harvested on day 5 and matured using poly(I:C) at 5 μg/mL/10^6 DCs (Amersham). Secretion of IL-12p70, TNFα, IL-1β, IL-6, IL-8 and IL-10 was assessed on both immature and mature DCs using the Human Inflammatory Cytokine Cytometric Bead Array (BD Pharmingen).
Activation of T cell clones (10,000 cells/100 μL/well), polyclonal T cell populations (100,000 cells/100 μL/well), and DCs (50,000 cells/100 μL/well) can be determined by ELISA. IFNγ (BioSource), TNFα (BioSource), IL-4 (BioSource), IFNβ (VeriKine; PBL interferon source) and MCP-3 (DuoSet; R&D Systems) contents in supernatants were measured according to the manufacturer's instructions. p50 was measured in cytosolic and nuclear fractions (fractions separated using the nuclear separation kit from Active motif) by ELISA (Active motif).

[2] = system: OX40L; assay: OX40L expression on DCs (staining); type: cell-based, human; settings: DCs exposed for 2 days, stained for OX40L
Procedure: as §1
(§3) A) DCs were exposed to various TLR agonists for 2 days before cells were stained for OX40L. […] B) TLR2-transfected and engineered HEK cells were incubated with MMP-2 (5 mg/ml) or various controls. All conditions were also tested in the presence of a blocking antibody for TLR2. TNFα was used to activate NF-κB in a TLR-independent manner. Twenty hours later, NF-κB activation was measured.
Antibody to OX40L (11C3.1) was from Biolegend. Blocking antibodies to TLR-2 and TLR-6 were from Invivogen. Antibodies to GATA-3, IL-4 (8D4-8), IL-5 (JES1-39D10), IL-13 (JES10-5A2), TNFα (MAb11), IFNγ (25723.11), perforin (δG9), GranzymeB (GB11), CD40 (5C3), CD80 (L307.4), CD83 (HB15e), CD86 (IT2.2), HLA-DR (TU36), fluorescein isothiocyanate-conjugated antibodies to CD45RA (HI100) and CD45RO (UCHL1), and antibody to CD4 (RPA-T4) were purchased from BD Biosciences Pharmingen. Alexa fluor 488-conjugated antibody to IL-17 (eBio64DEC17), phycoerythrine-conjugated antibody to T-bet (4B10).
as §2

[3] = molecular target: T1, human TLR-2 (Homo sapiens, UniProt O60603); assay: HEK-Blue-hTLR2 NF-κB SEAP reporter assay; type: cell-based; settings: MMP-2 5 mg/ml; twenty hours; with/without TLR2 blocking antibody
T1 construct: host or cells: HEK293 (HEK-Blue-hTLR2 cells)
Procedure: as §3
TLR2-transfected and engineered HEK cells were incubated with MMP-2 (5 mg/ml), TLR2 agonists, recombinant PEX and 3 pools of overlapping 20-mers covering MMP-2. OLP1: mix of 22 overlapping peptides covering MMP-2 from amino-acid 1 to 220; OLP2: mix of 22 overlapping peptides covering MMP-2 from amino-acid 210 to 440; OLP3: mix of 22 overlapping peptides covering MMP-2 from amino-acid 450 to 660. Twenty hours later, NF-κB activation was measured. Neither PEX nor the peptides triggered NF-κB signaling.
TLR-2-transfected (stably) HEK-Blue™ Cells represent a very efficient high throughput reagent for screening due to an easy read-out. […] Levels of SEAP can be readily determined with QUANTI-Blue™, a detection medium that turns purple/blue in the presence of alkaline phosphatase. […] Inhibition of NF-κB activation by any agents/molecules can be assessed and confirmed in DCs (which endogenously express TLR2 or are engineered to express exogenous TLR2) in order to corroborate the initial screening results in a native or more natural context. […] TLR-2-expressing cells, such as those described herein, can be incubated with agents/molecules and molecular interactions assessed using methods, such as, e.g., co-immunoprecipitation of MMP-2 and TLR-2 from the cell lysates. […] Additional methods can be used to evaluate if MMP-2 and TLR-2 interact directly, including other affinity-based methods (e.g., affinity chromatography or panning), competitive inhibition assays, and various visualization techniques, such as fluorescence resonance energy transfer (FRET) and others which are known in the art. […]

T1 sequence (O60603 21-784): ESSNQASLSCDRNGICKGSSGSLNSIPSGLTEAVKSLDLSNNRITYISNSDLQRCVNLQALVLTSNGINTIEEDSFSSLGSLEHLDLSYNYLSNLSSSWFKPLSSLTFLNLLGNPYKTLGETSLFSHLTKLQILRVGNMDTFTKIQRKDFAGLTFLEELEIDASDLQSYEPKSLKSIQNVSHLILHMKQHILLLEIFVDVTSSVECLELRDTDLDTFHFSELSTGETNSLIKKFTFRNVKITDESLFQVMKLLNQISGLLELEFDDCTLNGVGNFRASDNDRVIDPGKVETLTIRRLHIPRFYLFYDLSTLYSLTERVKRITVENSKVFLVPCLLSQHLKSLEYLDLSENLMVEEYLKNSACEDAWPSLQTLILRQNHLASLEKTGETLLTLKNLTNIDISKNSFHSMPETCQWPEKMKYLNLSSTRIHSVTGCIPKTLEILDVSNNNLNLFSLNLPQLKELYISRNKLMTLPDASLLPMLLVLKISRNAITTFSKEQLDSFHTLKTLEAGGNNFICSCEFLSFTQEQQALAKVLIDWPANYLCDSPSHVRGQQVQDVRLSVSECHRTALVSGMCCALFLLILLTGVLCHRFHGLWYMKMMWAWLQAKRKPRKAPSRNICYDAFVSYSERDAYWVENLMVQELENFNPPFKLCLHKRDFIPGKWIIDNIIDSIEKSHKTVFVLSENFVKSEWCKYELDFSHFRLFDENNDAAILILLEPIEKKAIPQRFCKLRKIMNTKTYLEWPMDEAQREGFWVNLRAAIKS

Row | Molecule | p50 translocation in the nucleus [1] | OX40L expression on DCs [2] | NF-κB activation in TLR2-transfected HEK cells [3]
1 | zymosan [reference compound] | induce p50 translocation in the nucleus after 30 min | induce OX40L on DCs | activate NF-κB in a TLR2-dependent manner
2 | PEX: last third of MMP-2, amino acids 445-635 of SEQ ID NO: 1; recombinant (protein, listed as Homo sapiens) YGASPDIDLGTGPTPTLGPVTPEICKQDIVFDGIAQIRGEIFFFKDRFIWRTVTPRDKPMGPLLVATFWPELPEKIDAVYEAPQEEKAVFFAGNEYWIYSASTLERGYPKPLTSLGLPPDVQRVDAAFNWSKNKKTYIFAGDKFWRYNEVKKKMDPGFPKLIADAWNAIPDNLDAVVDLQGGGHSYFFKGA | – | – | did not trigger TLR-2 activation; also recorded: do not trigger TLR2
